Experiment: growth inhibition of yeast carrying parasite Hsp90, dose response, anti-malarial Hsp90 inhibitor project, ATP luminescence, 48 h, cherry-picked samples (AID 540268)
Settings: yeast expressing the parasite Hsp90, ATP luminescence

Row | SMILES | AC50 [µM]
1 | CCN1/C(=C/c2ccc3cc(C)ccc3[n+]2CC)Sc2cc(C)c(C)cc21 | 3.25
2 | CC(=NNc1nc2ccccc2s1)c1ncccn1 | 2.36
3 | OC(Cn1cncn1)(c1ccccc1)c1ccccc1 | 1.57
4 | CCCC1COC(Cn2cncn2)(c2ccc(C)cc2)O1 (stereo not given) | 0.628
5 | CCCCCCCCCCOC(=O)Cn1c(COc2ccc(C)cc2)[n+](C)c2ccccc21 | 25.8
6 | O=C(Nc1cccc(C(F)(F)F)c1)Oc1ccc(Cl)c2cccnc12 | 4.93
7 | O=C(/C(=C/c1ccc(Cl)cc1)c1nc2ccccc2[nH]1)c1ccccc1 | 7.04
8 | CCN(CCO)C1CC(=O)N(c2ccccc2C)C1=O (stereo not given) | 1.26
9 | COc1cccc(F)c1C(C[N+](=O)[O-])c1c(N)n(C)c(=O)n(C)c1=O (stereo not given) | 4.3
10 | CC(=O)N(C(C)=O)N1C(=O)/C(=C/c2ccc(Cl)cc2)SC1=S | 3.28
11 | Cc1cccc(C)c1N=Nc1c(C)cc(O)cc1C | 8.29
12 | Nc1ccccc1C#CC(=O)c1ccccc1 | 7.65
13 | Oc1ccc(Cl)cc1/C=C/c1ccc2cccc(O)c2n1 | 2.66
14 | COc1ccc2c(c1)OC[C@H]1[C@H]2N2C(=O)c3cc(C)ccc3NC(=O)[C@@]2(C)[C@H]1c1ccccc1 | 0.988
15 | COc1ccc(-c2nc(-c3ccccn3)no2)cc1 | 16.2
16 | O=C(CCSc1nnc(-c2ccncc2)o1)Nc1ccc(Cl)cc1 | 2.87
17 | O=C(/C=C/c1ccccc1Cl)c1ccc(O)cc1 | 4.63
18 | O=[N+]([O-])c1cc(S(=O)(=O)C(F)(F)F)ccc1Sc1nc2ccccc2s1 | 3.43
19 | O=C(OCC(=O)C12CC3CC(CC(C3)C1)C2)c1ccc(O)cc1 | 1.06
20 | COc1cc(/C=C/C(=O)c2ccc([N+](=O)[O-])o2)ccc1O | 2.02
21 | Oc1c(CN2CCc3ccccc3C2)cc(Cl)c2cccnc12 | 7.82
22 | O=C1CC(N2CCCCCC2)C(=O)N1c1ccc2c(c1)OCO2 (stereo not given) | 4.12
23 | Cc1cc2cc(CNC(=O)c3ccc(C)c([N+](=O)[O-])c3)ccc2[nH]1 | 8.29
24 | O=C(Nc1ccccc1N1CCOCC1)c1ccc([N+](=O)[O-])s1 | 8.44
25 | Oc1c(C(c2ccc(Cl)cc2)N2CCCC2)cc(Cl)c2cccnc12 (stereo not given) | 1.58
26 | CCC(=O)NC(c1cccs1)c1cc(Cl)c2cccnc2c1O (stereo not given) | 3.73
27 | O=C(Nc1nnc(SCc2ccc(F)cc2)s1)c1ccccn1 | 4.41
28 | COc1ccccc1N=Nc1ccc(O)c2ncccc12 | 4.31

Row | SMILES | AC50 [µM]
29 | CCCc1ccc(Oc2cn[nH]c2-c2ccc(O)c(C)c2O)cc1 | 0.408
30 | O=C1Nc2ccc(Br)cc2/C1=C/C(=O)c1ccccc1 | 1.42
31 | CC(=O)C1=C(c2ccc(Br)cc2)C(=O)c2ccccc2C1=O | 7.82
32 | Cc1ccc(O)c(N=Nc2nccs2)c1 | 1.2
33 | COc1cc(N2C(=O)C=CC2=O)c(OC)cc1Cl | 1.77
34 | O=c1cc(CSc2ccc(Cl)cc2)nc(-c2ccccn2)[nH]1 | 16.6
35 | CCOC(=O)c1cc([N+](=O)[O-])c([N+](=O)[O-])cc1NC(C)=O | 2.08
36 | COc1ccc2c(c1)C=C(C(=O)NCc1ccc(Cl)cc1)CO2 | 4.21
37 | O=C(C#Cc1ccccc1)c1ccc([N+](=O)[O-])cc1 | 2.1
38 | COc1cc2c(cc1OC)C(=O)N1[C@H]3c4ccccc4OC[C@@H]3[C@H](c3ccccc3)[C@]1(C)C(=O)N2 | 8.37
39 | O=c1c(-c2ccccc2)c(-c2ccccc2)oc2cc(O)cc(O)c12 | 8.72
40 | O=C(CC(O)(C(F)(F)F)C(F)(F)F)Nc1ccc(Cl)c(Cl)c1 | 17.5
41 | COc1ccc(NC(=O)C2CCCN2S(=O)(=O)c2cccc3cccnc23)c(OC)c1 (stereo not given) | 1.31
42 | Cc1ccc(C(C[N+](=O)[O-])c2c(N)n(C)c(=O)n(C)c2=O)cc1 (stereo not given) | 3.33
43 | CC(C)N1CCN(c2ccc(OCC3COC(Cn4cncn4)(c4ccc(Cl)cc4Cl)O3)cc2)CC1 (stereo not given) | 1.12
44 | Cc1ccc(-n2ncc3c2CCCC3NC(=O)c2ccccc2N2CCOCC2)cc1C (stereo not given) | 0.984
45 | CN(c1ccccc1)c1ccc(/C=C/[N+](=O)[O-])cc1 | 5.24
46 | O=[N+]([O-])c1ccc(Sc2nc3ccccc3o2)c([N+](=O)[O-])c1 | 3.56
47 | O=S1(=O)Nc2c(ccc3cccnc23)-c2ccccc21 | 0.894
48 | O=[N+]([O-])c1ccc(O)c(/C=N/Nc2ccccn2)c1 | 3.31
49 | Oc1c(C(Nc2nccs2)c2ccc(C(F)(F)F)cc2)ccc2cccnc12 (stereo not given) | 2.49
50 | CC(=O)N(C)c1ccc(OCC(O)Cn2c3ccc(Cl)cc3c3cc(Cl)ccc32)cc1 (stereo not given) | 4.56
51 | COc1ccc(NC(=O)/C(Cl)=C(/Cl)S(=O)Cc2ccc(Cl)cc2)cn1 (stereo not given) | 0.837
52 | O=C(c1cccs1)c1no[n+]([O-])c1C(=O)c1cccs1 | 2.18
53 | COC(=O)c1ccc(NC(=O)c2cn(-c3ccccc3)nc2-c2ccncc2)cc1 | 4.08
54 | CC[C@H](C)/C=C(C)/C=C/C1=CC2=C(Cl)C(=O)[C@](C)(OC(C)=O)C(=O)C2=CO1 | 2.11
55 | Cc1cc(/C=C2\SC(=S)NC2=O)c(C)n1-c1cccc(O)c1 | 8.7

— PubChem BioAssay AID540268 (Broad Institute, 2011)
